Results published in paper PMC7915732, “Screening of Yeast Display Libraries of Enzymatically Treated Peptides to Discover Macrocyclic Peptide Ligands” (International Journal of Molecular Sciences, 2021).

Columns and labels:
[1] = biological target: T1, WW domains of YAP (WW-YAP) (Homo sapiens, UniProt P46937); assay: Static binding assay on peptide-Toyopearl resin, Langmuir isotherm, WW-YAP; details: binding capacity (mg protein/mL resin), PBS pH 7.4, 1 h room temperature, Langmuir fit, average of three independent replicates ± one standard error
T1 construct: which affords the expression of the WW domains of YAP (AAs 165–271); made in house; host or cells: Rosetta E. coli
Description: (§1) The known WW-binding peptide sequence [sequence] […] Protein adsorption isotherms were generated by incubating the peptide-functionalized resin with soluble N-terminal YAP or WW-YAP (20 μg/mL–3 mg/mL).
(§2) The supernatants were collected and analyzed by UV spectrophotometry at 280 nm to measure the amount of unbound protein. The amount of protein adsorbed on the resin was determined via mass balance. The KD describing the binding affinity of the soluble protein to the peptide-functionalized resin was determined by fitting the adsorption data to a Langmuir isotherm:(2) q=qmax[C]/KD+[C] where q is the amount of protein adsorbed on the resin (mg protein/mL resin), [C] is the unbound concentration of protein at equilibrium (mg protein/mL solution), qmax is the maximum protein binding capacity (mg protein/mL resin), and KD is the dissociation constant (mg protein/mL solution). Equation (2) was independently fit to the data obtained from triplicate adsorption studies, and the fitted values of KD and qmax were averaged across the repeats.

N-terminal YAP (N-YAP) = biological target: T2, N-terminal YAP (N-YAP) (Homo sapiens, UniProt P46937); assay: Static binding assay on peptide-Toyopearl resin, Langmuir isotherm, N-terminal YAP; details: binding capacity (mg protein/mL resin), PBS pH 7.4, 1 h room temperature, Langmuir fit, average of three independent replicates ± one standard error
T2 construct: which affords the expression of N-terminal YAP (AAs 1–291); made in house; host or cells: Rosetta E. coli
T2 sequence (P46937 1-291): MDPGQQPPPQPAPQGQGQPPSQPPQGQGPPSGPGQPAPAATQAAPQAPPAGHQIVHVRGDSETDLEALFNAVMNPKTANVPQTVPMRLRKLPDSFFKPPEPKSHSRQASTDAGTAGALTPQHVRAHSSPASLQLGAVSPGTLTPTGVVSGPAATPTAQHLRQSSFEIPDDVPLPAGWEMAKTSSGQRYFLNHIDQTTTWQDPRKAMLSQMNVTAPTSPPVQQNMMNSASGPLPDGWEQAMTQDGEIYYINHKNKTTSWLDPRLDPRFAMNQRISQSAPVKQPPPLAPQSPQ
Description: as §1, §2

T1 sequence (P46937 165-271): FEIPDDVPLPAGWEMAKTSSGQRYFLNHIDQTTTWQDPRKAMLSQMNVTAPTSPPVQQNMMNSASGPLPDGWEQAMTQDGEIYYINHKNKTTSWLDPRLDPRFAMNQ

In the case of RYSPPPPYSSHS [PTCH peptide], the “Qmax WW-YAP (resin)” value [1] is reported as 8.3 ± 0.27 mg/mL and the “Qmax N-YAP (resin)” value (N-terminal YAP (N-YAP)) is reported as 4.11 ± 0.12 mg/mL.
